The target of test [1] is T1, Amyloid-beta precursor protein (Homo sapiens, UniProt P05067). The test can be described thus: Inhibition of amyloid beta (1 to 42) (unknown origin) aggregation measured after 24 hrs by Thioflavin T-based fluorometric assay.
The target in test [2] is T1, Amyloid-beta precursor protein. The test can be described thus: Inhibition of human amyloid beta (1 to 42) aggregation at 100 uM measured after 72 hrs by Thioflavin T-based fluorometric assay.
The target in the next test is Acetylcholinesterase (Homo sapiens, UniProt P22303). The test can be described thus: Inhibition of human AChE assessed as hydrolytic activity using acetylthiocholine iodide as substrate measured for 15 mins by Ellmans assay.
Chain of Acetylcholinesterase (P22303 whole entry): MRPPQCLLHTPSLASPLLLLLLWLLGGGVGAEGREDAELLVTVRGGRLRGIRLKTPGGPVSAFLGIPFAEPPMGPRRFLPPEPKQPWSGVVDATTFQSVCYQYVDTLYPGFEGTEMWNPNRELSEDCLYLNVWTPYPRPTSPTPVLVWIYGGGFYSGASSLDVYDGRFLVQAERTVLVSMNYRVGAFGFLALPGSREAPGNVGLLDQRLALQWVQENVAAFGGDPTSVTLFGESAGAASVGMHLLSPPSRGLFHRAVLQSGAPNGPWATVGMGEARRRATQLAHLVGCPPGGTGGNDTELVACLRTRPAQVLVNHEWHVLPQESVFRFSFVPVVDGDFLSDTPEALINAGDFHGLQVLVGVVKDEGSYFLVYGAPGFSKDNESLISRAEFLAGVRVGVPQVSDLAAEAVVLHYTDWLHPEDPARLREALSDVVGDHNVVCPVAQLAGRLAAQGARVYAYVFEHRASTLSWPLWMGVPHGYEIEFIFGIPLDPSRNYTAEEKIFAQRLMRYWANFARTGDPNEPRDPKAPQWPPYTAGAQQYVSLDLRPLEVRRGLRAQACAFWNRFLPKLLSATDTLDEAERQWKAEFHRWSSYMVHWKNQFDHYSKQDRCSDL
The target of the next test is Cholinesterase (Homo sapiens, UniProt P06276). Kind of test: Inhibition of human BuChE assessed as hydrolytic activity using butyrylthiocholine iodide as substrate measured for 15 mins by Ellmans assay.
Chain of Cholinesterase (P06276 whole entry): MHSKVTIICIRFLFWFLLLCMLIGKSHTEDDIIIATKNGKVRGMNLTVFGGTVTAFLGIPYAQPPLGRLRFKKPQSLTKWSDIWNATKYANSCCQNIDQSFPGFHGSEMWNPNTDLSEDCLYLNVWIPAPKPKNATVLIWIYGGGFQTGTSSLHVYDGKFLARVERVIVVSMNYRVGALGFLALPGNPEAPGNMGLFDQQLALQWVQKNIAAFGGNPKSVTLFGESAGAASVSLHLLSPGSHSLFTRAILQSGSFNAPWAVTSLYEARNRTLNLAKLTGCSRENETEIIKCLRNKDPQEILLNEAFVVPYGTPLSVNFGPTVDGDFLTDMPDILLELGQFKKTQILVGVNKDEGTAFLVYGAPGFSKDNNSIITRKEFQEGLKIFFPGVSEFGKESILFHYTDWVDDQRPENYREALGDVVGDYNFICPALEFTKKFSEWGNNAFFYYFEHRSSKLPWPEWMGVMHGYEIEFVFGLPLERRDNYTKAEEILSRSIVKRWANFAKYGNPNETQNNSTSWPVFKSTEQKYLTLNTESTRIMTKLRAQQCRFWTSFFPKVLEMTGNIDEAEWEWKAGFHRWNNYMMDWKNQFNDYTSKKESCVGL
The target of test [3] is T1, Amyloid-beta precursor protein. Kind of test: Inhibition of amyloid beta (1 to 42) (unknown origin) aggregation at 50 uM measured after 3 hrs by Thioflavin T-based fluorometric assay.

T1 sequence (P05067 whole entry): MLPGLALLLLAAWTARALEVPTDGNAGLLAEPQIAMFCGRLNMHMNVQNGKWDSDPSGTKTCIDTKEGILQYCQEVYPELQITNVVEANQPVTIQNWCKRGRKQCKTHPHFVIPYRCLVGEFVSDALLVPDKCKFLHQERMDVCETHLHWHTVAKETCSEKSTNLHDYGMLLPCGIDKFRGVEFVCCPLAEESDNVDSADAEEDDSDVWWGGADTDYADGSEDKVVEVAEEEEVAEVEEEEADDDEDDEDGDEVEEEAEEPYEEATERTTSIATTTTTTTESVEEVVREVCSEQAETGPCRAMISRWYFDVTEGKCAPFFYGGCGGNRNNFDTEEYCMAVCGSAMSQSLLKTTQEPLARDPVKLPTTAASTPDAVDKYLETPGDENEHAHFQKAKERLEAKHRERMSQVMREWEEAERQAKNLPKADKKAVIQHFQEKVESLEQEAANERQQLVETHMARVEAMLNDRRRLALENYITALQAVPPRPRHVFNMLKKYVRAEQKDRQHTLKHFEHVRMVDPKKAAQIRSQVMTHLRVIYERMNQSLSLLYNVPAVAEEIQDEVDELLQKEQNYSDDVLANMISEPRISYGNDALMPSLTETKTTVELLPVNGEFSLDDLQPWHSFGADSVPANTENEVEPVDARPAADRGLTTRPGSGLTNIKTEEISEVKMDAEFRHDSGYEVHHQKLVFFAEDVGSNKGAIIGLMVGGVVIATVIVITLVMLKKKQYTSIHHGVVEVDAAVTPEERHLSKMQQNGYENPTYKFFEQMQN

Take `Cc1ccc(-c2cc(NCCNc3cc(-c4cccs4)[nH]n3)n[nH]2)cc1`: in test [1], the IC50 came out at 29 µM.
Take `CC(COC(=O)c1ccc(Oc2nc(Oc3ccc(C(=O)OCC(C)N(C)C)cc3)nc(Oc3ccc(C(=O)OCC(C)N(C)C)cc3)n2)cc1)N(C)C` (centres undefined): the inhibition in test [2] is 68.5%. The IC50 on Acetylcholinesterase was 80.8 µM; on Cholinesterase, 164 µM.
Taken in the same sequence, the figures for `COc1nc(Oc2ccc(C(=O)OCC(C)N(C)C)cc2)nc(Oc2ccc(C(=O)OCC(C)N(C)C)cc2)n1` (centres undefined) were 58.4%, 111 µM and above 200 µM.
For `CN(C)c1ccc(-c2cc(NCCNc3cc(-c4ccc(N(C)C)cc4)[nH]n3)n[nH]2)cc1`, the midpoint of inhibition in test [1], the IC50, lay at 7.5 µM.
The same measure, in the same setting: next, `Fc1ccc(-c2cc(NCCNc3cc(-c4ccc(F)cc4)[nH]n3)n[nH]2)cc1`: 40.5 µM.
In turn, `C[N+](C)(C)CCOC(=O)c1ccc(Oc2nc(Oc3ccc(C(=O)OCC[N+](C)(C)C)cc3)nc(Oc3ccc(C(=O)OCC[N+](C)(C)C)cc3)n2)cc1` had an inhibition in test [2] of 50.9%. For the same compound, the IC50 at Acetylcholinesterase was determined as 0.3 µM; on Cholinesterase it was 3.9 µM.
`O=C(NC1C2CC3CC(C2)CC1C3)c1nc(Cc2ccccc2)cc(Oc2ccccc2)n1` (centres undefined) registered an inhibition in test [3] of 47%.
Same read-out and setting: with `CC(C)CCNC(=O)c1cc(Cc2ccccc2)cc(Oc2ccccc2)n1` the figure was 71%.

Source of the values: ChEMBL document CHEMBL3779862, “Amyloid cascade in Alzheimer's disease: Recent advances in medicinal chemistry” (Eur J Med Chem, 2016).
